Results from US12428433B2, “Fluorine-containing heterocyclic derivatives with macrocyclic structure and use thereof” (ScinnoHub Pharmaceutical Co., Ltd, priority 2019, dated 2025).
Like-named read-outs stand apart in the source and are kept apart here.

Tests used:
Ba/F3 EVT6-NTRK3-G623R = experiment: In-vitro cell viability (CTG), NTRK mutant cells; type: cell-based; conditions: for IC50: Mus musculus, read-out: Ba/F3 EVT6-NTRK3-G623R IC50
Protocol: (§1) Hefei Precedo Biomedical Technology Co., Ltd. was commissioned to complete the testing example, and NTRK mutant cells used were constructed by this company.
(§2) Inhibitory effects of the compound of the present application on growth of three NTRK mutant cells (Ba/F3 LMNA-NTRK1-G667C, Ba/F3 EVT6-NTRK3-G623R and Ba/F3 LMNA-NTRK1-G595R) were measured.
(§3) Cells in logarithmic growth phase were collected and counted by a blood platelet counter, a cell concentration was adjusted to 3 to 6×10^4 cell/mL, 90 μL of cell suspension was added into a 96-well plate, and cells in the 96-well plate were cultured at 37° C. under 5% CO2 and 95% humidity overnight.
(§4) The to-be-tested compound was prepared into a 10 times drug solution in a medium containing 1% DMSO, with […] and the drug solution was diluted by 3 times in sequence to obtain drug solutions with 9 concentrations in total. […] 10 μL of prepared drug solution was added into each well of the 96-well plate in which the cells were inoculated. Then, 90 μL of medium containing 1% DMSO was added to obtain a drug solution with a highest concentration of 1 μM, and the drug solution was diluted by 3 times in sequence to obtain drug solutions with 9 concentrations in total. A final concentration of DMSO in each well was 0.1%, and three multiple wells were provided for the drug of each concentration. The cells in the 96-well plate in which the drug has been added were cultured at 37° C. under 5% CO2 and 95% humidity for 72 hours, and then subjected to CTG analysis.
(§5) An equal volume of CTG solution was added into each well, the 96-well plate was placed at room temperature for 20 minutes to stabilize a luminescence signal, and a luminescence value was read.
(§6) Data was analyzed by GraphPad Prism 7.0 software, and fitted by nonlinear S-curve regression to obtain a dose-effect curve, from which an IC50 value was calculated. Cell survival rate (%)=(Lum to-be-tested drug−Lum medium control)/(Lum cell control−Lum medium control)×100%.

Ba/F3 LMNA-NTRK1-G595R = experiment: In-vitro cell viability (CTG), NTRK mutant cells; type: cell-based; conditions: Mus musculus, read-out: Ba/F3 LMNA-NTRK1-G595R IC50
Protocol: as §1, §2, §3, §4, §5, §6

Ba/F3 LMNA-NTRK1-G667C = experiment: In-vitro cell viability (CTG), NTRK mutant cells; type: cell-based; conditions: Mus musculus, read-out: Ba/F3 LMNA-NTRK1-G667C IC50
Protocol: as §1, §2, §3, §4, §5, §6

[1] = In-vivo pharmacokinetic study on SD rats, intravenous and oral; conditions: rat, plasma; for AUC(0-t): read-out: Area under curve AUC(0-t); for Cmax: read-out: Concentration to peak Cmax; for half-life: read-out: Half-life period t1/2 (converted); for bioavailability: read-out: Bioavailability F %
Protocol: Species: SD rats, SPF level. Source: the animals were transferred from the animal repository (999M-017) of the experimental institution of Shanghai Sippe-Bk Lab Animal Co., Ltd. Quantity: 3 rats for each formulation.
2.1 An appropriate amount of test samples were accurately weighed, added to a final volume of 5% DMSO, 10% polyethylene glycol-15 hydroxystearate and 85% normal saline, and fully mixed by vortex or ultrasound to obtain 0.2 mg/mL administration solution for intravenous administration.
2.2 An appropriate amount of test samples were accurately weighed, added to a final volume of 5% DMSO, 10% polyethylene glycol-15 hydroxystearate and 85% normal saline, and fully mixed by vortex or ultrasound to obtain 0.5 mg/mL administration solution for oral and intragastric administration.
Weighing was carried out before administration, and the dosage was calculated according to the weight. Intravenous administration, or oral intragastric administration was carried out.
The blood sampling was carried out before administration and 0.083 hour, 0.25 hour, 0.5 hour, 1 hour, 2 hours, 4 hours, 6 hours, 8 hours, and 24 hours after administration.
The blood sampling was carried out through a jugular vein or other suitable modes, and about 0.20 mL of each sample was collected. Heparin sodium was used for anticoagulation, the collected blood samples were placed on ice, and plasma was centrifuged within 2 hours (the centrifugation was carried out by a centrifugal force of 6,800 g for 6 minutes at 2° C. to 8° C.). The collected plasma samples were stored in a refrigerator at −80° C. before analysis, and the remaining plasma samples after analysis were continuously stored in the refrigerator at −80° C. for temporary storage.
A plasma concentration of a test subject was detected, a plasma concentration-time curve was drawn, and BLQs were all recorded as 0. […] According to blood concentration data at different time points, the pharmacokinetic parameters such as AUC(0-t), T1/2 and Cmax were calculated by WinNonlin.

IC50 (Ba/F3 EVT6-NTRK3-G623R; BaF3, 72 hours, CTG) | IC50 (Ba/F3 LMNA-NTRK1-G595R; BaF3, 72 hours, CTG) | IC50 (Ba/F3 LMNA-NTRK1-G667C; BaF3, 72 hours, CTG) | AUC(0-t) ([1]; IV @ 1 mg/kg) | Cmax ([1]; IV @ 1 mg/kg) | half-life ([1]; IV @ 1 mg/kg) | AUC(0-t) ([1]; PO @ 5 mg/kg) | bioavailability ([1]; PO @ 5 mg/kg) | Cmax ([1]; PO @ 5 mg/kg) | half-life ([1]; PO @ 5 mg/kg) | Structure (SMILES) | IC50 (Ba/F3 EVT6-NTRK3-G623R; BaF3, 72 h) | IC50 (Ba/F3 LMNA-NTRK1-G595R; BaF3, 72 h) | IC50 (Ba/F3 LMNA-NTRK1-G667C; BaF3, 72 h) | inhibitory activity higher than that of the positive control compound 2 (Ba/F3 EVT6-NTRK3-G623R; Ba/F3 EVT6-NTRK3-G623R, data of Table 2)
18 nM | 1.8 nM | 1.8 nM | 605 ng·h/mL | 1160 nM | 0.45 h | 2270 ng·h/mL | 75.1% | 932 nM | 0.68 h | O=C1N[C@H]2C[C@H](C2)Oc2ncc(F)cc2[C@H]2CCCN2c2ccn3ncc1c3n2 (stereo in doubt) [Positive control 1, reference compound] | – | – | – | –
25 nM | 4.5 nM | 3.2 nM | 1480 ng·h/mL | 573 nM | 5 h | 8770 ng·h/mL | 119% | 1300 nM | 3.01 h | C[C@H]1Nc2nc3c(cnn3cc2F)C(=O)N[C@H]2C[C@H](C2)Oc2ncc(F)cc21 [Example 3, (3^1S,3^3S,6^3E,6^4E,8R)-1^5,6^6-difluoro-8-methyl-2-oxo-4,7-diaza-6(3,5)-pyrazolo[1,5-a]pyrimidine-1(2,3)-pyridine-3(1,3)-cyclobutylcyclooctane-5-one] | – | – | – | 4 times
107 nM | 13 nM | 6.5 nM | 1010 ng·h/mL | 781 nM | 4.54 h | 3350 ng·h/mL | 66.3% | 633 nM | 3 h | C[C@H]1Nc2ccn3ncc(c3n2)C(=O)N[C@H]2C[C@H](C2)Oc2ncc(F)cc21 [Positive control 2, reference compound] | – | – | – | –

Structure (SMILES) | IC50 (Ba/F3 EVT6-NTRK3-G623R; BaF3, 72 hours, CTG) | IC50 (Ba/F3 LMNA-NTRK1-G595R; BaF3, 72 hours, CTG) | IC50 (Ba/F3 LMNA-NTRK1-G667C; BaF3, 72 hours, CTG) | AUC(0-t) ([1]; IV @ 1 mg/kg) | Cmax ([1]; IV @ 1 mg/kg) | half-life ([1]; IV @ 1 mg/kg) | AUC(0-t) ([1]; PO @ 5 mg/kg) | bioavailability ([1]; PO @ 5 mg/kg) | Cmax ([1]; PO @ 5 mg/kg) | half-life ([1]; PO @ 5 mg/kg) | IC50 (Ba/F3 EVT6-NTRK3-G623R; BaF3, 72 h) | IC50 (Ba/F3 LMNA-NTRK1-G595R; BaF3, 72 h) | IC50 (Ba/F3 LMNA-NTRK1-G667C; BaF3, 72 h) | inhibitory activity higher than that of the positive control compound 2 (Ba/F3 EVT6-NTRK3-G623R; Ba/F3 EVT6-NTRK3-G623R, data of Table 2)
O=C1N[C@H]2C[C@H](C2)Oc2ncc(F)cc2[C@H]2CCCN2c2nc3c1cnn3cc2F [Example 2, ((1^3E,1^4E,2^2R,5^1S,5^3S)-1^6,3^5-difluoro-4-oxa-6-aza-1(5,3)-pyrazolo[1,5-a]pyrimidine-3(3,2)-pyridine-2(1,2)-pyrrolidine-5(1,3)-cyclobutancycloheptan-7-one] | – | – | – | 422 ng·h/mL | 875 nM | 0.33 h | 1500 ng·h/mL | 70.9% | 527 nM | 0.55 h | 14 nM | 2.3 nM | 3 nM | –
